Measurements as given in ChEMBL document CHEMBL1157998, “Koninginin G, a new metabolite from trichoderma aureoviride” (1999).

Tested on: Triticum aestivum
Test: Growth inhibition of etiolated wheat coleoptiles at 1000 uM relative to control
Assay type: functional
Settings: read-out: GI

SMILES: CCCCCc1cccc(=O)o1
- inhibition of growth at 1000 µM: 100%

SMILES: CCCCCC[C@H](O)[C@@H]1CC[C@@H]2[C@H](O)CC[C@H](O)[C@@]2(O)O1 [KONINGININ G]
- inhibition of growth at 1000 µM: 56%
